According to patent US20250144067A1, “PERSONALIZED STARVATION THERAPY FOR CANCER” (Faeth Therapeutics, Inc., priority 2021, published 2025):
Structures can show the parent of a compound that is named as a salt. Where two headings read alike, the source gives them in different places.

What was measured:
[1] = tested on: NCI-H292 lung cancer cells; experiment: FDA drug screening, complete media vs cholesterol-free media without statin (TABLE 1); format: cell-based, human
[2] = tested on: NCI-H292 lung cancer cells; experiment: FDA drug screening, complete media vs cholesterol-free media with simvastatin (TABLE 2); format: cell-based, human
[3] = complete vs cholesterol-free media, greater than 0 enhanced anti-cancer activity, about 0 neutral, below 0 antagonists
[4] = NCI-H292 cells, FDA drug library screen, cholesterol-free media with simvastatin 0.04 μM
[5] = NCI-H292 cells, FDA drug library screen, complete media
[6] = complete media minus cholesterol-free media + simvastatin, >0 enhanced anti-cancer activity, about 0 neutral, <0 antagonist
[7] = Complete minus Cholesterol-free, >0 enhanced anti-cancer activity, about 0 neutral, <0 antagonist
[8] = NCI-H292 cells, cholesterol-free media without statin, FDA drug library screen
[9] = NCI-H292 cells, complete media, FDA drug library screen
[10] = complete media vs cholesterol-free media + simvastatin (0.04 μM), >0 enhanced anti-cancer activity, about 0 neutral, <0 antagonist
[11] = complete vs cholesterol-free media, >0 enhanced anti-cancer activity, about 0 neutral, <0 antagonist
[12] = NCI-H292 cells, cholesterol-free media without statin
[13] = NCI-H292 cells, drug in cholesterol-free media with simvastatin 0.04 μM
[14] = NCI-H292 cells, drug in complete media
[15] = NCI-H292 cells in cholesterol-free media without statin
[16] = NCI-H292 cells in complete media
[17] = Complete minus Cholesterol-free, […]
[18] = complete media vs cholesterol-free media + simvastatin (0.04 μM), […]
[19] = complete vs cholesterol-free media, […]
[20] = NCI-H292 cells, cholesterol-free media with simvastatin 0.04 μM, cell growth value in FDA drug screen
[21] = NCI-H292 cells, complete media, cell growth value in FDA drug screen

Row | Molecule | Complete ([1]; NCI-H292 cells, complete media) | Difference [1, 3] | Cholesterol-free media + simvastatin (0.04 μM) [2, 4] | Complete Media [2, 5] | Cholesterol-free [1, 8] | Complete [1, 9] | Difference [2, 10] | Cholesterol-free [1, 12] | Cholesterol-free media + simvastatin (0.04 μM) [2, 13] | also measured
1 | CCOc1ccc(Cc2cc([C@@H]3O[C@H](CO)[C@@H](O)[C@H](O)[C@H]3O)ccc2Cl)cc1 | 0.6259 | −0.32 | 0.9312 | 1.177 | – | – | – | – | – | Difference [2, 6]: 0.25
2 | CC1(C)C[C@@H]1C(=O)N/C(=C\CCCCSC[C@H](N)C(=O)O)C(=O)O [Cilastatin] | – | – | – | – | – | – | – | – | – | Cholesterol-free [1]: 1.185; Complete [1]: 0.8515; Difference [1]: −0.33; Cholesterol-free media + simvastatin (0.04 μM) [2]: 1.258; Complete Media [2]: 0.85; Difference [2]: −0.41
3 | OCc1cc(C(O)CNCCCCCCOCCCCc2ccccc2)ccc1O (stereo not shown) [Salmeterol] | – | – | 0.6428 | 0.8345 | 0.865 | 0.8548 | – | – | – | Difference [1, 7]: −0.01; Difference [2, 6]: 0.19
4 | NC(=O)c1ncn([C@@H]2O[C@H](CO)[C@@H](O)[C@H]2O)c1O [Mizoribine] | – | – | 1.118 | 0.9745 | – | – | −0.14 | – | – | Difference ([1]; Complete minus Cholesterol-free, greater than 0 enhanced anti-cancer activity, about 0 neutral, below 0 antagonist): −0.10; Cholesterol-free ([1]; NCI-H292 cells, FDA drug library screen, cholesterol-free media without statin): 0.879; Complete [1, 5]: 0.7795
5 | OC[C@@H](O)[C@@H](O)[C@H](O)[C@@H](O)CO [D-Sorbitol] | – | – | 1.142 | 1.023 | 1.006 | 1.32 | −0.12 | – | – | Difference [1, 11]: 0.31
6 | CC(=O)NCCCCCC(=O)O [6-Acetamidohexanoic acid] | 1.01 | −0.34 | – | – | – | – | −0.26 | 1.348 | 1.04 | Complete Media [2, 14]: 0.7847
7 | Atracurium (besylate) | – | – | – | – | – | – | −0.26 | – | 1.369 | Difference ([1]; Complete minus Cholesterol-free, greater than 0 enhanced anti-cancer activity, about 0 neutral, below 0 antagonists): −0.49; Cholesterol-free [1, 15]: 1.419; Complete [1, 16]: 0.9276
8 | COc1ccc(CCN(C)CCC[C@@](C#N)(c2ccc(OC)c(OC)c2)C(C)C)cc1OC.Cl [(S)-Verapamil (hydrochloride)] | 0.9711 | – | – | – | – | – | – | 1.169 | 1.086 | Difference [1, 17]: −0.20; Complete Media [2, 14]: 0.9249; Difference [2, 18]: −0.16
9 | Polidocanol | – | – | 1.046 | 0.8917 | 0.7606 | 0.9235 | – | – | – | Difference [1, 19]: 0.16; Difference [2, 18]: −0.15
10 | CCCCOc1ccc(C(=O)CCN2CCCCC2)cc1 [Dyclonine (hydrochloride)] | 0.7824 | −0.34 | – | – | – | – | – | 1.119 | – | Cholesterol-free media + simvastatin (0.04 μM) [2, 20]: 0.8623; Complete Media [2, 21]: 0.9661; Difference [2, 6]: 0.10
11 | CC(C)C[C@H](N)C(=O)O [L-Leucine] | – | – | – | – | 1.354 | 1.837 | – | – | 1.064 | Difference [1, 19]: 0.48; Complete Media [2, 14]: 0.8826; Difference [2, 18]: −0.18
12 | C[C@]12CCC(=O)C=C1CC[C@@H]1[C@@H]2C(=O)C[C@@]2(C)[C@H]1CC[C@]2(O)C(=O)CO [Cortisone] | 0.9117 | – | 1.033 | 0.8818 | – | – | −0.15 | 1.216 | – | Difference [1, 7]: −0.30
13 | O=c1[nH]c2ccccc2n1C1CCN(CCCC(c2ccc(F)cc2)c2ccc(F)cc2)CC1 [Pimozide] | 0.6361 | −0.46 | 0.8031 | 0.9681 | – | – | – | 1.1 | – | Difference [2, 6]: 0.16
14 | CO[C@]12C[C@@H](COC(=O)c3cncc(Br)c3)CN(C)[C@@H]1Cc1cn(C)c3cccc2c13 [Nicergoline] | – | – | – | – | 0.9355 | 1.445 | −0.58 | – | – | Difference [1, 11]: 0.51; Cholesterol-free media + simvastatin (0.04 μM) ([2]; NCI-H292 cells, FDA library drug in cholesterol-free media with simvastatin 0.04 μM): 1.053; Complete Media ([2]; NCI-H292 cells, FDA library drug in complete media): 0.4708
15 | O=C(O)COC(=O)Cc1ccccc1Nc1c(Cl)cccc1Cl [Aceclofenac] | – | – | 1.455 | 1.329 | 0.9513 | 1.14 | −0.13 | – | – | Difference [1, 11]: 0.19
16 | O=S(=O)([O-])c1cc(O)ccc1O.O=S(=O)([O-])c1cc(O)ccc1O.[Ca+2] [Calcium dobesilate] | – | – | – | – | 1.325 | 1.418 | – | – | 1.427 | Difference [1, 19]: 0.09; Complete Media [2, 14]: 1.218; Difference [2, 18]: −0.21
17 | NC(=O)c1ccn(-c2cnc(NC[C@]3(c4ncccc4F)C[C@H](F)C3)nc2)c1 [Reldesemtiv] | 0.8441 | – | – | – | – | – | −0.19 | 1.096 | 1.122 | Difference [1, 7]: −0.25; Complete Media [2, 14]: 0.9357
18 | CCOC(=O)[C@H](CCc1ccccc1)N[C@@H](C)C(=O)N(CC(=O)O)C1Cc2ccccc2C1 [Delapril (hydrochloride)] | 0.9182 | – | – | – | – | – | – | 1.222 | – | Difference [1, 7]: −0.30; Cholesterol-free media + simvastatin (0.04 μM) [2, 20]: 0.7815; Complete Media [2, 21]: 0.8772; Difference [2, 6]: 0.10
19 | CCCCN1CCCC[C@H]1C(=O)Nc1c(C)cccc1C [Levobupivacaine (hydrochloride)] | 0.9683 | −0.33 | – | – | – | – | – | 1.298 | – | Cholesterol-free media + simvastatin (0.04 μM) [2, 20]: 0.871; Complete Media [2, 21]: 0.9154; Difference [2, 6]: 0.04
20 | FC(F)(F)c1ccc(CNc2ccc(Cc3c[nH]c4ncc(Cl)cc34)cn2)cn1 [Pexidartinib (hydrochloride)] | 0.7514 | −0.45 | 1.136 | 1.002 | – | – | −0.13 | 1.204 | – | –
21 | Nc1ccc(O)c(C(=O)O)c1 [5-Aminosalicylic Acid] | 0.8775 | −0.33 | – | – | – | – | −0.21 | 1.21 | 1.224 | Complete Media [2, 14]: 1.016
22 | CNC(=O)CN(CCN(CCN(CC(=O)[O-])CC(=O)NC)CC(=O)[O-])CC(=O)[O-].O.[Gd+3] [Gadodiamide (hydrate)] | – | – | 1.113 | 0.9905 | – | – | – | – | – | Difference [1, 17]: −0.65; Cholesterol-free [1, 15]: 1.387; Complete [1, 16]: 0.7342; Difference [2, 18]: −0.12
23 | COc1cc(NS(=O)(=O)c2ccc(N)cc2)nc(OC)n1 [Sulfadimethoxine] | 0.8763 | −0.36 | 0.819 | 0.9685 | – | – | – | 1.234 | – | Difference [2, 6]: 0.15
24 | CCCCCCc1ccc(O)cc1O [Hexylresorcinol] | – | – | – | – | 1.034 | 1.036 | −0.17 | – | 1.514 | Difference [1, 7]: 0.00; Complete Media [2, 14]: 1.344
